In patent US20260226064A1, “POLYCYCLIC COMPOUND FOR TREATING NEUROLOGICAL DISEASES AND TUMORS” (Shanghai Institute of Organic Chemistry, Chinese Academy of …, priority 2023, published 2026):
Where two headings read alike, the source gives them in different places.

Experiments:
[1] = test system: acetylated microtubule in HEK293T cells; experiment: Microtubule-Stabilizing Activity Assay (acetylated microtubule immunoblot, HEK293T, colchicine challenge); format: cell-based; conditions: 1 h pre-incubation, then colchicine 1 μM 3 h, relative to CNDR-51657 at 500 nM = 1.00; for Microtubule-Stabilizing Activity 50 nM: compound 50 nM; for Microtubule-Stabilizing Activity 500 nM: compound 500 nM
Procedure, shortened: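 HEK293T cells pretreated with compound or DMSO 1 h at 37 °C, then challenged with 1 μM colchicine for 3 h. Lysates (RIPA plus 1 μM trichostatin A) immunoblotted for acetylated and α-tubulin, quantified by densitometry. Activity expressed relative to CNDR-51657 at 500 nM set as 1.00.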

[2] = Mouse Oral Pharmacokinetic Study; format: in vivo; conditions: mouse, male CD1 mice, oral gavage 10 mg/kg; for Kp at 4 h: brain/plasma, read-out: Cbrain/Cplasma; for AUC(0-t) / Cmax / Tmax: plasma; for AUC(0-t): 0-4 h, read-out: AUC0-4h; for Cmax: read-out: Cmax; for Tmax: read-out: Tmax
Procedure: Healthy male CD1 mice were used as experimental animals. The drug was administered by oral gavage at a dose of 10 mg/kg with a dosing volume of 10 mL/kg. Drug preparation: 10 mg of the compound was placed in 10 mL of 50% PEG400 or 20% HPb-cyclodextrin, ground and shaken to ensure uniform distribution of the compound in small particle size, followed by oral administration. Blood samples were collected at 30 min, 1 h, 2 h, and 4 h post-dose, and brain tissues were sampled at 4 h. EDTA dipotassium salt was added to the blood samples, and plasma was obtained after centrifugation. The supernatant was analyzed after dilution with 5 volumes of acetonitrile and centrifugation. The brain tissue homogenate was diluted with 3.5 volumes of acetonitrile, centrifuged, and the supernatant was collected for analysis. The samples were then analyzed by liquid chromatography-tandem mass spectrometry (LC-MS/MS): the instrument was AB Sciex 3500; the mobile phase consisted of 0.1% formic acid in water (A)/0.1% formic acid in acetonitrile (B), with gradient elution.

[3] = brain tissue at 4 h, read-out: Cbrain@4h
[4] = plasma at 4 h, read-out: Cpasma@4h

## C[C@H](Nc1c(-c2c(F)cc(OCC3[C@H]4CN(C)C[C@@H]34)cc2F)c(Cl)nc2ncnn12)C(F)(F)F (stereo partly drawn) [Example 25, 5-Chloro-6-(2,6-difluoro-4-(((1R,5S,6r)-3-methyl-3-azabicyclo[3.1.0]hexan-6-yl)methoxy)phenyl)-N—((S)-1,1,1-trifluoropropan-2-yl)-[1,2,4]triazolo[1,5-a]pyrimidin-7-amine]
[1]
  Microtubule-Stabilizing Activity 50 nM: 0.96
  Microtubule-Stabilizing Activity 500 nM: 1.31
[2]
  Kp at 4 h: 1.45
  AUC(0-t): 939 ng·h/mL
  Cmax: 399 ng/mL
  Tmax: 45 min
[2]; [3]
  concentration at 4 h: 198 ng/mL
[2]; [4]
  concentration at 4 h: 137 ng/mL

## C[C@@H](Nc1c(-c2c(F)cc(C#C[C@@H]3[C@H]4CN(C)C[C@@H]34)cc2F)c(Cl)nc2ncnn12)C1CCC1 [Example 46, 5-Chloro-N—((R)-1-cyclobutylethyl)-6-(2,6-difluoro-4-(((1R,5S,6s)-3-methyl-3-azabicyclo[3.1.0]hexan-6-yl)ethynyl)phenyl)-[1,2,4]triazolo[1,5-a]pyrimidin-7-amine]
[1]
  Microtubule-Stabilizing Activity 50 nM: 1.76
  Microtubule-Stabilizing Activity 500 nM: 1.44
[2]
  Kp at 4 h: 1.09
  AUC(0-t): 1600 ng·h/mL
  Cmax: 572 ng/mL
  Tmax: 30 min
[2]; [3]
  concentration at 4 h: 356 ng/mL
[2]; [4]
  concentration at 4 h: 325 ng/mL

## C[C@H](Nc1c(-c2c(F)cc(C#CC3[C@H]4CN(C)C[C@@H]34)cc2F)c(Cl)nc2ncnn12)C(F)(F)F (stereo partly drawn) [Example 48, 5-Chloro-6-(2,6-difluoro-4-(((1R,5S,6s)-3-methyl-3-azabicyclo[3.1.0]hexan-6-yl)ethynyl)phenyl)-N—((S)-1,1,1-trifluoropropan-2-yl)-[1,2,4]triazolo[1,5-a]pyrimidin-7-amine]
[1]
  Microtubule-Stabilizing Activity 50 nM: 1.42
  Microtubule-Stabilizing Activity 500 nM: 1.66
[2]
  Kp at 4 h: 2.83
  AUC(0-t): 1810 ng·h/mL
  Cmax: 591 ng/mL
  Tmax: 45 min
[2]; [3]
  concentration at 4 h: 1020 ng/mL
[2]; [4]
  concentration at 4 h: 359 ng/mL

## CC(C)[C@@H](C)Nc1c(-c2c(F)cc(C#C[C@@H]3[C@H]4CN(C)C[C@@H]34)cc2F)c(Cl)nc2ncnn12 [Example 55, 5-Chloro-6-(2,6-difluoro-4-(((1R,5S,6s)-3-methyl-3-azabicyclo[3.1.0]hexan-6-yl)ethynyl)phenyl)-N—((R)-3-methylbutan-2-yl)-[1,2,4]triazolo[1,5-a]pyrimidin-7-amine]
[1]
  Microtubule-Stabilizing Activity 50 nM: 1.8
  Microtubule-Stabilizing Activity 500 nM: 1.62
[2]
  Kp at 4 h: 1.22
  AUC(0-t): 1450 ng·h/mL
  Cmax: 496 ng/mL
  Tmax: 30 min
[2]; [3]
  concentration at 4 h: 375 ng/mL
[2]; [4]
  concentration at 4 h: 306 ng/mL

## Cc1nc2ncnn2c(N[C@H](C)C(C)C)c1-c1c(F)cc(OCC2[C@H]3CN(C)C[C@@H]23)cc1F (stereo partly drawn) [Example 57, 6-(2,6-Difluoro-4-(((1R,5S,6r)-3-methyl-3-azabicyclo[3.1.0]hexan-6-yl)methoxy)phenyl)-5-methyl-N—((R)-3-methylbutan-2-yl)-[1,2,4]triazolo[1,5-a]pyrimidin-7-amine]
[1]
  Microtubule-Stabilizing Activity 500 nM: 1.90
[2]
  Kp at 4 h: 0.96
  AUC(0-t): 525 ng·h/mL
  Cmax: 161 ng/mL
  Tmax: 30 min
[2]; [3]
  concentration at 4 h: 102 ng/mL
[2]; [4]
  concentration at 4 h: 106 ng/mL

## CN1C[C@@H]2[C@@H](/C=C/c3cc(F)c(-c4c(Cl)nc5ncnn5c4NCC(F)(F)F)c(F)c3)[C@@H]2C1 [Example 58]
[1]
  Microtubule-Stabilizing Activity 50 nM: 1.09
  Microtubule-Stabilizing Activity 500 nM: 1.63
[2]
  Kp at 4 h: 3.58
  AUC(0-t): 368 ng·h/mL
  Cmax: 115 ng/mL
  Tmax: 60 min
[2]; [3]
  concentration at 4 h: 222 ng/mL
[2]; [4]
  concentration at 4 h: 62 ng/mL

## Cc1nc2ncnn2c(NCC(F)(F)F)c1-c1c(F)cc(OC[C@@H]2[C@H]3CN(C)C[C@@H]23)cc1F [Example 60]
[1]
  Microtubule-Stabilizing Activity 50 nM: 0.95
  Microtubule-Stabilizing Activity 500 nM: 1.24
[2]
  Kp at 4 h: 1.32
  AUC(0-t): 696 ng·h/mL
  Cmax: 379 ng/mL
  Tmax: 30 min
[2]; [3]
  concentration at 4 h: 62 ng/mL
[2]; [4]
  concentration at 4 h: 47 ng/mL

## CC(C)[C@@H](C)Nc1c(-c2c(F)cc(F)cc2F)c(Cl)nc2ncnn12 [Intermediate 4, (R)-5-Chloro-N-(3-methylbutan-2-yl)-6-(2,4,6-trifluorophenyl)-[1,2,4]triazolo[1,5-a]pyrimidin-7-amine, reference compound]
[1]
  Microtubule-Stabilizing Activity 50 nM: 0.2-0.3
  Microtubule-Stabilizing Activity 500 nM: 1.00
[2]
  Kp at 4 h: 0
  AUC(0-t): 57 ng·h/mL
  Cmax: 49 ng/mL
  Tmax: 30 min
[2]; [3]
  concentration at 4 h: 0 ng/mL
[2]; [4]
  concentration at 4 h: 3 ng/mL
